Legend:
Assay type in all cases: in vivo
[1] = test system: ABUTILON THEOPHRASTI, MEDIC.; assay: Postemergence herbicidal evaluation, ABUTH (Velvetleaf);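 further: higher means more injury with 8 approaching complete kill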
Outline: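 This postemergence herbicide test used two-week-old velvetleaf seedlings grown in jiffy flats. Each compound was sprayed at 40 psi as a dispersion in 50/50 acetone/water with 0.5% TWEEN®20 surfactant. Plants then received routine greenhouse care. After four to five weeks, injury was scored visually on a 0-9 scale against a control, and replicate tests were averaged.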

[2] = test system: AMBROSIA ARTEMISIIFOLIA, L.; assay: Postemergence herbicidal evaluation, AMBEL (Ragweed, Common);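 further: higher means more injury with 8 approaching complete kill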
Outline: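 Postemergence herbicidal activity on AMBEL (common ragweed) was assessed on two-week-old seedlings grown in jiffy flats. Treatment solutions of 50/50 acetone/water with 0.5% TWEEN®20 surfactant were sprayed at 40 psi. After four to five weeks in the greenhouse, plants were scored 0-9 against a control for stand, vigor, malformation, size, chlorosis and overall appearance, with multiple tests averaged.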

CASSIA OBTUSIFOLIA, L. = assay: Postemergence herbicidal evaluation, CASOB (Sicklepod); parameters: key to CASOB rating / Herbicidal effect rating, CASOB / CASOB: 0-9 visual rating scale vs untreated control;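 further: higher means more injury with 8 approaching complete kill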
Outline: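 Postemergence foliar spray at approximately 0.125–0.500 kg/ha onto two-week seedlings; greenhouse hold, then 0–9 visual injury rating after 4–5 weeks.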

CHENOPODIUM ALBUM, L. [3] = assay: Postemergence herbicidal evaluation, CHEAL (Lambsquarters, Common);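 further: higher means more injury with 8 approaching complete kill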
Outline: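 Postemergence herbicidal activity on Chenopodium album was tested by spraying two-week-old seedlings grown in jiffy flats with compound in acetone/water (50/50) plus 0.5% TWEEN®20, using a 40 psi nozzle. Four to five weeks after treatment, stand, vigor, malformation, size, chlorosis and overall appearance were scored 0-9 relative to controls, with repeat tests averaged.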

IPOMOEA SPP. = assay: Postemergence herbicidal evaluation, IPOSS (Morningglory spp.);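 further: higher means more injury with 8 approaching complete kill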
Outline: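 In this greenhouse postemergence herbicide test on Ipomoea spp. (morningglory), compounds in 50/50 acetone/water with 0.5% TWEEN®20 were sprayed at 40 psi onto seedlings about two weeks old grown in jiffy flats. After four to five weeks, injury was scored on a 0-9 scale covering stand, vigor, malformation, size, chlorosis and overall appearance versus control, with repeat tests averaged.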

[4] = test system: ECHINOCHLOA CRUS-GALLI, (L) BEAU; assay: Postemergence herbicidal evaluation, ECHCG (Barnyardgrass); parameters: key to ECHCG rating / Herbicidal effect rating, ECHCG / ECHCG: 0-9 visual rating scale vs untreated control
Outline: (§1)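 Ratings (0-9) reflect visual stand, vigor, malformation, size and chlorosis compared with untreated plants, assessed 4-5 weeks after postemergence spraying. Treatment was applied to roughly two-week-old seedlings at about 0.125-0.500 kg/ha in acetone/water with 0.5% Tween 20; replicate tests were averaged.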

[5] = test system: SETARIA VIRIDIS, (L) BEAU; assay: Postemergence herbicidal evaluation, SETVI (Foxtail, Green); parameters: key to SETVI rating / Herbicidal effect rating, SETVI / SETVI: 0-9 visual rating scale vs untreated control
Outline: as §1

[6] = test system: TRITICUM AESTIVUM, CV. APOLLO; assay: Postemergence herbicidal evaluation, TRZAWO (Wheat, Winter, CV. APOLLO);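 further: higher means more injury with 8 approaching complete kill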
Outline: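 This greenhouse postemergence test applied compounds to roughly two-week-old wheat seedlings grown in jiffy flats. The spray solution was 50/50 acetone/water with 0.5% TWEEN®20, a polyoxyethylene sorbitan monolaurate, sprayed from a nozzle run at 40 psi. After four to five weeks of standard greenhouse care, injury was scored from 0 to 9 by comparing stand, vigor, malformation, size, chlorosis and overall appearance with a control. Multiple tests were averaged.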

ZEA MAYS L. = assay: Postemergence herbicidal evaluation, ZEAMX (Corn, Field);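 further: higher means more injury with 8 approaching complete kill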
Outline: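 This greenhouse postemergence test treated corn plants about two weeks old. Compounds in a 50/50 acetone/water mixture with 0.5% TWEEN®20 were applied through a spray nozzle at 40 psi. After four to five weeks, injury was scored 0-9 against an untreated control, judging stand, vigor, malformation, size, chlorosis and overall appearance. Repeated tests were averaged.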

CHENOPODIUM ALBUM, L. [7] = assay: Preemergence herbicidal evaluation, CHEAL (Lambsquarters, Common);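 further: higher means more injury with 8 approaching complete kill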
Outline: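 Seeds mixed with potting soil were planted on about one inch of soil in cups, then sprayed with aqueous acetone solution of test compound at about 0.125 to 0.50 kg per hectare. Plants grown under greenhouse conditions; visual rating on a 0-9 scale versus untreated control at 4-5 weeks.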

[8] = test system: ORYZA SATIVA, L. TEBONNET; assay: Rice tolerance to post-transplant applications under flooded paddy conditions, ORYSAT (Rice, Tebonnet); conditions: post-transplanted rice
Outline: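 Visual 0-9 rating against untreated control (stand, vigor, malformation, size, chlorosis, overall appearance), taken 3-4 weeks after treatment. Flooded silt loam, water at 1.5-3 cm; two 10-day-old seedlings per pot; compound applied to flooded soil surface 3 days post-transplant at ~0.5-0.063 kg/ha.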

Cn1c(=O)[nH]c(=O)n(-c2cc(Oc3c(F)cc(C(F)(F)F)cc3Cl)ccc2[N+](=O)[O-])c1=O [D, reference compound]
ABUTH ([1]; Rate 0.008 kg/ha): 0.0
ABUTH ([1]; Rate 0.016 kg/ha): 8.3
ABUTH ([1]; Rate 0.031 kg/ha): 8.7
ABUTH ([1]; Rate 0.063 kg/ha): 9.0
ABUTH ([1]; Rate 0.125 kg/ha): 9.0
AMBEL ([2]; Rate 0.008 kg/ha): 5.0
AMBEL ([2]; Rate 0.016 kg/ha): 7.3
AMBEL ([2]; Rate 0.031 kg/ha): 8.0
AMBEL ([2]; Rate 0.063 kg/ha): 8.0
AMBEL ([2]; Rate 0.125 kg/ha): 8.5
CASOB (CASSIA OBTUSIFOLIA, L.; Rate 0.008 kg/ha): 1.0
CASOB (CASSIA OBTUSIFOLIA, L.; Rate 0.016 kg/ha): 4.3
CASOB (CASSIA OBTUSIFOLIA, L.; Rate 0.031 kg/ha): 5.0
CASOB (CASSIA OBTUSIFOLIA, L.; Rate 0.063 kg/ha): 6.0
CASOB (CASSIA OBTUSIFOLIA, L.; Rate 0.125 kg/ha): 9.0
CHEAL (CHENOPODIUM ALBUM, L. [3]; Rate 0.008 kg/ha): 7.0
CHEAL (CHENOPODIUM ALBUM, L. [3]; Rate 0.016 kg/ha): 7.3
CHEAL (CHENOPODIUM ALBUM, L. [3]; Rate 0.031 kg/ha): 6.3
CHEAL (CHENOPODIUM ALBUM, L. [3]; Rate 0.063 kg/ha): 7.0
CHEAL (CHENOPODIUM ALBUM, L. [3]; Rate 0.125 kg/ha): 9.0
IPOSS (IPOMOEA SPP.; Rate 0.016 kg/ha): 7.3
IPOSS (IPOMOEA SPP.; Rate 0.031 kg/ha): 7.7
IPOSS (IPOMOEA SPP.; Rate 0.063 kg/ha): 7.3
IPOSS (IPOMOEA SPP.; Rate 0.125 kg/ha): 9.0
ECHCG ([4]; Rate 0.016 kg/ha): 3.0
ECHCG ([4]; Rate 0.031 kg/ha): 1.5
ECHCG ([4]; Rate 0.063 kg/ha): 2.0
ECHCG ([4]; Rate 0.125 kg/ha): 2.5
SETVI ([5]; Rate 0.008 kg/ha): 0.0
SETVI ([5]; Rate 0.016 kg/ha): 1.0
SETVI ([5]; Rate 0.031 kg/ha): 1.3
SETVI ([5]; Rate 0.063 kg/ha): 1.3
SETVI ([5]; Rate 0.125 kg/ha): 1.5
TRZAWO ([6]; Rate 0.016 kg/ha): 3.5
TRZAWO ([6]; Rate 0.031 kg/ha): 4.5
TRZAWO ([6]; Rate 0.063 kg/ha): 5.3
TRZAWO ([6]; Rate 0.125 kg/ha): 5.3
ZEAMX (ZEA MAYS L.; Rate 0.008 kg/ha): 1.0
ZEAMX (ZEA MAYS L.; Rate 0.016 kg/ha): 3.3
ZEAMX (ZEA MAYS L.; Rate 0.031 kg/ha): 3.3
ZEAMX (ZEA MAYS L.; Rate 0.063 kg/ha): 4.2
ZEAMX (ZEA MAYS L.; Rate 0.125 kg/ha): 5.5
CHEAL (CHENOPODIUM ALBUM, L. [7]; Rate 0.031 kg/ha): 9.0
CHEAL (CHENOPODIUM ALBUM, L. [7]; Rate 0.063 kg/ha): 9.0
CHEAL (CHENOPODIUM ALBUM, L. [7]; Rate 0.125 kg/ha): 9.0
CHEAL (CHENOPODIUM ALBUM, L. [7]; Rate 0.250 kg/ha): 9.0
ORYSAT ([8]; Rate 0.031 kg/ha): 3.0
ORYSAT ([8]; Rate 0.063 kg/ha): 3.0
ORYSAT ([8]; Rate 0.125 kg/ha): 3.0
ORYSAT ([8]; Rate 0.250 kg/ha): 6.0
